Test results: patent US20080090278A1, “METHOD FOR ENHANCING STABILITY OF A COMPOSITION COMPRISING SOLUBLE GLUCOSE DEHYDROGENASE (GDH)” (TOYO BOSEKI KABUSHIKI KAISHA, priority 2006, published 2008)

Experiments:
[1] = test system: recombinant FAD-GDH (rAO-FAD-GDH) derived from Aspergillus oryzae; experiment: Thermal stabilization effect of stabilizing agents on rAO-FAD-GDH in solution (Examples 3-6); type: physicochemical; conditions: for thermal stabilization effect on FAD-GDH (in words): 50° C. for 15 minutes, Example 3
Procedure: Enhancement of the thermal stability referred to herein means increasing of a residual ratio (%) of the GDH enzyme kept after giving the treatment with heat at a certain temperature for a certain time period to the composition comprising the GDH enzyme. In the present invention, the activity in the sample stored at 4° C. which is nearly completely kept is made 100%, this is compared with the activity in the GDH solution after giving the treatment with heat at a certain-temperature for a certain time period, and the residual ratio of the enzyme is calculated.
In the method for measuring the activity described in the method for measuring the GDH enzyme activity described later, an activity value (a) of GDH in the solution stored at 4° C. and an activity value (b) of GDH after giving the treatment with heat at a certain temperature for a certain time period were measured, a relative value[(b)/(a)×100] when the activity value (a) was made 100 was calculated. This relative value was made the residual ratio (%). Comparing the presence with the absence of the added compound, when the residual ratio was increased by the addition of the compound, it was determined that the thermal stability was enhanced.
In the present invention, the activity of FAD-dependent GDH is measured as follows.
The reaction-reagent is made by mixing 15.6 mL of the PIPES buffer, 0.2 mL of the DCPIP solution and 4 mL of the D-glucose solution.
(§1) The reaction reagent (3 mL) is preliminarily heated at 37° C. for 5 minutes. The GDH solution (0.1 mL) is added and gently mixed, subsequently the change of absorbance at 600 nm is recorded for 5 minutes using the spectrophotometer controlled to 37° C. using water as the control, and the change of absorbance per one minute (ΔODTEST) is calculated from the linear portion of the record. The solvent in which GDH will be dissolved in place of the blinded GDH solution is added to the reagent mixture, and the change of absorbance (ΔODBLANK) per one minute is measured. The GDH activity is calculated from these values according to the following formula. One unit (U) in the GDH activity is defined as the amount of the enzyme which reduces […] DCPIP for one minute in the presence of 200 mM D-glucose. Activity (U/mL)=[−(ΔODTEST−ΔODBLANK)×3.0×dilution scale]/(16.3×0.1×1.0) In the above formula, 3.0 represents a liquid amount (mL) of the reaction reagent+the enzyme solution, 16.3 represents a millimolar molecular absorbance coefficient (cm^2/μmol) in the condition for measuring this enzyme, 0.1 represents the liquid amount of the enzyme solution (mL) and 1.0 represents a light path length (cm) of the cell.
The study was performed in accordance with the method for measuring the FAD-GDH activity in Test Example 1 described above.
First, 50 mL of an enzyme solution obtained by dissolving the recombinant FAD-GDH (rAO-FAD-GDH)-derived from Aspergillus oryzae obtained in Example 1 at about 2 U/mL in an enzyme dilution solution (50 mM potassium phosphate buffer, pH 5.5, 0.1% Triton X-100) was prepared. Two tubes in which each stabilizing agent described in Table 1 had been added at each final concentration to 0.9 mL of this enzyme solution to make the total volume 1.0 mL were prepared.
(§2) In two tubes, one tube was stored at −4° C. and another tube was treated at 50° C. for 15 minutes. Then, the FAD-GDH activity in each tube was measured. The enzyme activity in the tube stored at 4° C. was made 100, and comparing with it, the activity value after being treated at 50° C. for 15 minutes was calculated as the residual activity ratio (%).
The method was in accordance with Example 3 described above.
The methods were in accordance with Example 3 above.

[2] = test system: recombinant FAD-GDH (rAT-FAD-GDH) derived from Aspergillus terreus; experiment: Thermal stabilization effect of stabilizing agents on rAT-FAD-GDH in solution (Example 9); type: physicochemical; conditions: for Residual activity ratio (%) / GLD activity value (U/ml) 50° C., 15 min: Table 10, buffer 50 mM K-PB, stabilizer at each final concentration described in Table 1; for Residual activity ratio (%): 50° C., 15 min versus 4° C.; for thermal stabilization effect on FAD-GDH (in words): rAT-FAD-GDH, 50° C. for 15 minutes, Example 9
Procedure: as §1, with “D-glucose.” for “D-glucose. Activity (U/mL)=[−(ΔODTEST−ΔODBLANK)×3.0×dilution scale]/(16.3×0.1×1.0) In the above formula, 3.0 represents a liquid amount (mL) of the reaction reagent+the enzyme solution, 16.3 represents a millimolar molecular absorbance coefficient (cm^2/μmol) in the condition for measuring this enzyme, 0.1 represents the liquid amount of the enzyme solution (mL) and 1.0 represents a light path length (cm) of the cell.”
Two tubes in which each stabilizing agent described in Table 1 had been added at each final concentration to 0.9 mL of this enzyme solution to make the total volume 1.0 mL were prepared.
as §2, with “4°” for “−4°”

[3] = stabilizer final concentration 1%, rAO-FAD-GDH about 2 U/mL, 50 mM potassium phosphate buffer pH 5.5, 0.1% Triton X-100, 4° C. sample = 100
[4] = stabilizer final concentration 0.10%, rAO-FAD-GDH, pH 5.5
[5] = stabilizer final concentration 0.20%, rAO-FAD-GDH, pH 5.5

SMILES | thermal stabilization effect on FAD-GDH (in words) ([1]; rAO-FAD-GDH) | Residual activity ratio (%) after treatment at 50° C., 15 min [1, 3] | Residual activity ratio (%) [2] | thermal stabilization effect on FAD-GDH (in words) [2] | Residual activity ratio (%) after treatment at 50° C., 15 min [1, 4] | Residual activity ratio (%) after treatment at 50° C., 15 min ([1]; stabilizer final concentration 0.50%, rAO-FAD-GDH, pH 5.5) | Residual activity ratio (%) after treatment at 50° C., 15 min [1, 5] | GLD activity value (U/ml) 50° C., 15 min [2]
O=C[C@@H](O)[C@H](O)[C@H](O)CO [D-(−)-arabinose] | high effect | 23.0% | 2.5% | high effect |  |  |  | 0.069 U/ml
[Cl-].[Na+] [Sodium chloride] | high effect |  |  | high effect |  |  |  | 
N[C@H](CCC(=O)O)C(=O)O [D-glutamic acid] | high effect |  | 5.6% | high effect | 23.2% |  |  | 0.149 U/ml
O=C[C@H](O)[C@@H](O)[C@H](O)CO [D-(+)-xylose] | high effect | 68.5% | 18.5% | high effect |  |  |  | 0.516 U/ml
N[C@H](Cc1ccccc1)C(=O)O [D-phenylalanine] |  |  | 2.3% |  | 23.6% |  |  | 0.062 U/ml
O=C(O)C1OC(O)C(O)C(O)C1O [D-a-galacturonic acid] |  | 0.0% | 0.2% |  |  |  |  | 0.004 U/ml
NC(=O)C[C@H](N)C(=O)O [L-asparagine] |  |  | 1.6% |  |  |  | 22.8% | 0.044 U/ml
O=C([O-])[C@H](O)[C@@H](O)[C@H](O)[C@H](O)CO.[Na+] [sodium gluconate] | high effect | 33.5% | 3.9% | high effect |  |  |  | 0.111 U/ml
N[C@@H](CC(=O)[O-])C(=O)[O-].[Na+].[Na+] [Sodium L-aspartate] | high effect | 23.0% | 3.7% | high effect |  |  |  | 0.102 U/ml
N=C(N)NCCC[C@H](N)C(=O)O [L-arginine] |  | 1.1% | 0.1% |  |  |  |  | 0.001 U/ml
N[C@@H](Cc1ccccc1)C(=O)O [L-phenylalanine] |  |  | 1.2% |  |  |  | 22.3% | 0.031 U/ml
O=C[C@H](O)[C@@H](O)[C@@H](O)[C@H](O)CO [Galactose] | high effect | 60.6% | 17.2% | high effect |  |  |  | 0.495 U/ml
O=C1O[C@H](CO)[C@@H](O)[C@H](O)[C@H]1O [Glucono-1,5-lactone] |  | 0.0% | 0.1% |  |  |  |  | 0.003 U/ml
O=C[C@H](O)[C@@H](O)[C@H](O)[C@H](O)C(=O)[O-].[Na+] [D-sodium glucuronate] | high effect | 56.2% | 10.0% | high effect |  |  |  | 0.279 U/ml

Second part, led by results:

thermal stabilization effect on FAD-GDH (in words) ([1]; rAO-FAD-GDH) | Residual activity ratio (%) after treatment at 50° C., 15 min [1, 3] | Residual activity ratio (%) [2] | thermal stabilization effect on FAD-GDH (in words) [2] | Residual activity ratio (%) after treatment at 50° C., 15 min [1, 4] | Residual activity ratio (%) after treatment at 50° C., 15 min ([1]; stabilizer final concentration 0.50%, rAO-FAD-GDH, pH 5.5) | Residual activity ratio (%) after treatment at 50° C., 15 min [1, 5] | SMILES | GLD activity value (U/ml) 50° C., 15 min [2]
high effect | 59.0% | 7.3% | high effect |  |  |  | OC[C@H]1O[C@H](OCC2O[C@@H](O)[C@H](O)[C@@H](O)[C@@H]2O)[C@H](O)[C@@H](O)[C@H]1O (stereo partly drawn) [a-D-(+)-melibiose] | 0.197 U/ml
 |  | 1.3% |  | 24.3% |  |  | N[C@@H](Cc1c[nH]c2ccccc12)C(=O)O [L-triptophan] | 0.034 U/ml
high effect | 53.6% | 9.4% | high effect |  |  |  | CO[C@H]1O[C@H](CO)[C@@H](O)[C@H](O)[C@H]1O [Methyl-a-D-glucoside] | 0.267 U/ml
 |  | 1.6% |  |  | 25.5% |  | CC(C)[C@H](N)C(=O)O [L-valine] | 0.043 U/ml
high effect |  |  | high effect |  |  |  | O=C(O)[C@@H]1CCCN1 [proline] | 
high effect | 23.8% | 3.2% | high effect |  |  |  | NCCS(=O)(=O)O [Taurine] | 0.081 U/ml
 | 44.1% | 1.5% |  |  |  |  | OC[C@H]1O[C@@H]2O[C@H]3[C@H](O)[C@@H](O)[C@@H](O[C@H]4[C@H](O)[C@@H](O)[C@@H](O[C@H]5[C@H](O)[C@@H](O)[C@@H](O[C@H]6[C@H](O)[C@@H](O)[C@@H](O[C@H]7[C@H](O)[C@@H](O)[C@@H](O[C@H]1[C@H](O)[C@H]2O)O[C@@H]7CO)O[C@@H]6CO)O[C@@H]5CO)O[C@@H]4CO)O[C@@H]3CO [a-cyclodextrin] | 0.044 U/ml
high effect | 25.2% | 3.0% | high effect |  |  |  | CNCC(=O)O [Sarcosine] | 0.081 U/ml
high effect |  |  | high effect |  |  |  | O=C(O)CC(=O)O [Malonic acid] | 
